“Also recorded” adds a separate entry of the source. Like-named read-outs stand apart in the source and are kept apart here.
Legend:
NCI-H460 cells [1] = experiment: Total cellular protein (sulphorhodamine B assay); assay type: cell-based, human; settings: H460, chloroquine, 96 hours after initial exposure (Figure 7B)
Procedure: Control medium/alamar blue were removed and 200 μl PBS was added. […] Wells were rinsed with water and allowed to air dry. Cells were then stained in 0.4% SRB solution, before rinsing with 1% acetic acid and air drying. Incorporated dye was solubilised in 10 mM Tris and absorbance measured at 565 nm and 690 nm. Absorbance measurements at 690 nm were subtracted from the 565 nm readings to correct for multi-well plate absorbance.

NCI-H460 cells [2] = experiment: Mitochondrial function (alamar blue); assay type: cell-based, human; settings: H460, chloroquine, 96 hours after initial exposure (Figure 7B)
Procedure: Mitochondrial function (alamar blue) NCI-H460 cells were grown in Ham's F12 media supplemented with 10% FCS. Cells were harvested and added to 96-well plates at densities of 250-1000. Compounds were made up from stock solutions and added directly to cells at the concentrations indicated. Cells were grown with compound for the indicated time at 37°C, 5% CO2, in a humidified atmosphere. Alamar Blue 10% (v/v) was then added and incubated for a further 4 h, and fluorescent product detected using the BMG FLUOstar plate reader. The media only background was subtracted and the data analysed as appropriate.

H460 cells = experiment: Autophagy Assay (Cyto-ID Green, flow cytometry); assay type: cell-based, human; settings: H460, 25 μM, positive control, 72 h and 96 h
Procedure: Autophagy Assay was performed as recommended by the manufacturers' instructions (Enzo ENZ-51031-[…]). Briefly, H460 cells were seeded into 6 well plates at 2.5 × 10^5 and 1 × 10^5 cells/well. Immediately after cell plating, chloroquine or […] were added at the concentrations indicated. Following compound treatment, cells were washed once in PBS and resuspended in x1 Cyto-ID Green autophagy detection reagent and incubated at room temperature for 30 min. Immediately prior to analysis, propidium iodide (PI) solution was added to the cell suspension at a final concentration of 2.5 μg/ml, to assess cell death. Analysis was carried out using FACSCalibur (BD Biosciences). Cyto-ID Green autophagy reagent was measured in the FL-1 channel (530/30 nm bandpass filters with excitation at 488 nm) and PI measured in the FL-3 channel (670 nm longpass filters with excitation at 488 nm).

NCI-H460 cells [3] = experiment: Cellular ATP levels (CellTiter-Glo assay); assay type: cell-based, human; settings: H460, chloroquine, 96 hours after initial exposure (Figure 7B)
Procedure: Cellular ATP levels (CellTiter-Glo assay) Cells were grown, seeded and compound-treated as for the alamar Blue assay. A volume of the CellTiter-Glo reagent equal to the volume of cell culture media was added to the cells. Plates were mixed for 2 min on an orbital shaker to induce cell lysis before the plate was incubated at room temperature for 10 min to stabilize the signal. The luminescent signal was measured and the media only background was subtracted.

[4] = system: normal diploid human fibroblasts; experiment: In-vitro morphological cell viability screen, normal fibroblasts; assay type: cell-based; settings: for effect on normal diploid fibroblasts (in words): 5 mM
Procedure: (§2) A broad search for possible biological activity associated with the [sequence] peptide sequence was initially instituted by screening human bladder cancer cell lines for potential in-vitro morphological changes, compared to control cultures of normal diploid human fibroblasts at 4-8 passages from primary culture as controls. […] The peptides were dissolved, over a range of concentrations, in Ham's F12 + 10% FCS and introduced in 100 μL quantities to microwells containing 500 RT112 bladder cancer cells, or normal diploid human fibroblasts, in 200 μL of Ham's F12 + 10% FCS plated 24 hours earlier on 96 well plates.

[5] = system: RT112 human bladder cancer cells; experiment: In-vitro morphological cell viability screen, RT112; assay type: cell-based; settings: for Cell Viability Human Bladder Cancer: RT112, dose 5.0 mM, Ham's F12 + 10% FCS, morphological appearance
Procedure: as §2

[6] = system: Cdk1 and Cdk4 expression in RT112 cells; experiment: Western blotting of Cdk1 and Cdk4 expression, RT112; assay type: cell-based, human; settings: RT112, 5 mM linear end-capped peptide, 0 - 10 days, Western blot
From the text: This co-expression is unaffected by cytocidal doses of cisdiamminedichloroplatinum but can accompany spontaneous cancer cell death. Whether or not Cdk1/Cdk4 co-expression remained constant in cancer cells dying as a result of exposure to PRGPRP was thus examined by Western blotting.
(§1) All cell lines were from certified sources.

[7] = system: H460 Human Non-small Cell Lung Cancer
[8] = system: H460 human non-small cell lung cancer cells; experiment: Necrosis assay by Trypan Blue exclusion, H460; assay type: cell-based; settings: H460, 200 μM, 2, 3, 4 and 7 days after plating, triplicate wells
Procedure: Necrosis Assay Cells were plated in triplicate in 96 well plates at concentrations of 500 cells per well (HT1299, MCF-7) or 1000 cells per well (H460, MRC5-hTERT) in the presence or absence of the relevant compound and assessed by Trypan Blue exclusion At 2,3,4 and 7 days after plating. To assay, cells were trypsinised off, stained with trypan blue in isotonic medium and live and dead cells separately counted visually by haemocytomter. Each data point is the mean of results from triplicate wells (Solid lines - Live cells, Broken lines - Dead Cells; Blue - Control, Red - THR53 200 μM).

[9] = system: RT112 human bladder cancer and H460 human non-small lung cancer cell lines; experiment: Cell killing by cyclic amphiphilic peptides (viability and clonogenic survival); assay type: cell-based; settings: for improvement in selective cancer cell cytotoxicity: cyclic amphiphilic cassettes compared with the earlier PRGPRP peptides; for time at which cell killing reached a maximum: for the majority of cell lines
From the text: Attempts to limit proteolysis and improve cell uptake, by incorporating the hexameric peptide sequence into cyclic peptide cassettes were undertaken, initially without success (Table 3,X-XIII). Linear constructs attaching PRGPRP to a known cell-internalising amphiphilic sequence were also unsuccessful (Table 3,XIV and 3XV). […] Selective toxicity to these cancer cell lines, and not normal fibroblasts, was retained (Table 4).
as §1

[10] = dose 5.0 mM, Ham's F12 + 10% FCS, morphological appearance

Row | Molecule | Cell Viability Normal Diploid Fibroblasts [4, 10] | Cell Viability Human Bladder Cancer [5] | Cell Viability Normal Diploid Fibroblasts ([4]; dose 200 μM) | Cell Viability Human Non-small Cell Lung Cancer ([7]; H460, dose 200 μM) | also measured
1 | CCN(CC)CCCC(C)Nc1ccnc2cc(Cl)ccc12 (centres unmarked) [Chloroquine, reference compound] |  |  |  |  | total cellular protein (NCI-H460 cells [1]): ubiquitous effect; mitochondrial oxidation/reduction (NCI-H460 cells [2]): ubiquitous effect; autophagy, Cyto-ID Green FL-1 peak (H460 cells): increase in autophagy; ATP levels (NCI-H460 cells [3]): ubiquitous effect
2 | Ac-PRGPRP-NH2 [THR1, linear N'-capped PRGPRP-amide hexapeptide] | + + + + + | - - - |  |  | effect on normal diploid fibroblasts (in words) [4]: stimulates normal fibroblast growth; also recorded: increases the confluent cell density; toxicity to RT112 human bladder cancer cells (in words) ([5]; 5 mM): greater selective toxicity; also recorded: complete necrosis; Cdk1 expression compared to Cdk4 [6]: progressive rise
3 | Cyc-GGGGGGPRGPRPGGGGGG] (head to tail) [XII] |  |  | + + + | + + + | 
4 | Cyc-[AAAGGGPRGPRPGGGAAA] (head to tail) [X] |  |  | + + + | + + + | 
5 | Cyc-[AAGPGGPRGPRPGGPGAA] (head to tail) [XIII] |  |  | + + + | + + + | 
6 | Cyc-[FPPRRPGPVKLALKLALK] (head to tail) [THR53C, PRRPGP in cyclic amphiphilic cassette, Cyc-[…]] |  |  | + + + | + + + | necrosis detected by trypan blue uptake [8]: not with THR53C
7 | Cyc-[GGGGGGPRGPRPGGGGGG] (head to tail) [XI] |  |  | + + + | + + + | 
8 | Cyc-[PR(Me)GPRPVALKLALKLAL] (head to tail) [XX] |  |  |  | + +/- | 
9 | Cyc-[PRGPR(Me)PVALKLALKLAL] (head to tail) [XXI] |  |  |  | ++ + | 
10 | Cyc-[PRGPRPVALKLALKLAL] (head to tail) [THR54] |  |  |  |  | improvement in selective cancer cell cytotoxicity [9]: fifty- to a hundred-fold improvement; time at which cell killing reached a maximum [9]: ≤ 4 days; Cell Viability Normal Diploid Fibroblasts ([4]; dose 100 μM): + + +; Cell Viability Human Non-small Cell Lung Cancer ([7]; H460, dose 100 μM): _ _ _
11 | Cyc-[PRGPRPvalklalklal] (head to tail) [THR79] |  |  |  |  | improvement in selective cancer cell cytotoxicity [9]: fifty- to a hundred-fold improvement; time at which cell killing reached a maximum [9]: ≤ 4 days; Cell Viability Normal Diploid Fibroblasts ([4]; dose 50 μM): + + +; Cell Viability Human Non-small Cell Lung Cancer ([7]; H460, dose 50 μM): _ _ _
12 | FPPRGPRPVQ [I] |  |  |  |  | effect on normal fibroblasts (in words) ([4]; 1.0 mM): partial sparing; Cell Viability Normal Diploid Fibroblasts ([4]; dose 1.0 mM, Ham's F12 + 10% FCS, morphological appearance): + +/-; toxicity to RT112 human bladder cancer cells (in words) ([5]; 1.0 mM): selectively toxic
13 | Linear FPPRGPRPVKLALKLALK [XIV] |  |  | + + + | + + + | 
14 | Linear PRGPRPVALKLALKLAL [XV] |  |  | + + + | + + + | 
15 | PEGPEP [IX, hexapeptide with both arginines substituted by glutamic acid] | + + + | + + + |  |  | 
16 | PEGPRP [VII, hexapeptide with arginine substituted by glutamic acid] | + + + | + + + |  |  | effect on normal diploid fibroblasts (in words) [4]: no effect; toxicity to RT112 human bladder cancer cells (in words) ([5]; 5 mM): lacked cytotoxic activity
17 | PRGPEP [VIII, hexapeptide with arginine substituted by glutamic acid] | + + + | + + + |  |  | effect on normal diploid fibroblasts (in words) [4]: no effect; toxicity to RT112 human bladder cancer cells (in words) ([5]; 5 mM): lacked cytotoxic activity
18 | PRGPR [III, linear N'-capped synthetic peptide amide PRGPR] | + + + | - - - |  |  | 
19 | PRRPGP [VI, linear end-capped hexapeptide PRRPGP, one arginine transposed] | + + + | + + + |  |  | toxicity to RT112 human bladder cancer cells (in words) ([5]; 5 mM): markedly diminishes RT112 human bladder cancer cell killing; Cdk1 expression compared to Cdk4 [6]: not PRRPGP
20 | RGPR [V, shorter linear peptide RGPR] | + + + | + + + |  |  | toxicity to RT112 human bladder cancer cells (in words) ([5]; 5 mM): inactive
21 | RGPRP [IV, linear N'-capped synthetic pentapeptide amide RGPRP] | + + + |  |  |  | effect on normal diploid fibroblasts (in words) [4]: sparing normal diploid fibroblasts; toxicity to RT112 human bladder cancer cells (in words) ([5]; 5 mM): greater selective toxicity

Reference: PMC3126777, “Selective anticancer activity of a hexapeptide with sequence homology to a non-kinase domain of Cyclin Dependent Kinase 4” (Molecular Cancer, 2011)
